In patent publication US20250320193A1, “OXOISOINDOLINYL SUBSTITUTED PIPERIDINEDIONE DERIVATIVE AND USE THEREOF” (GLUETACS THERAPEUTICS (SHANGHAI) CO., LTD., priority 2022, published 2025):

target: human Cereblon WT GST-tagged protein (Homo sapiens (Human), UniProt Q96SW2); assay: CRBN-binding affinity, HTRF (CEREBLON BINDING kit, CISBIO); conditions: HTRF inhibitory activity
Experimental: I. Determination of CRBN-binding affinity of compounds of the present disclosure:
The CEREBLON BINDING kits (specification: 10,000 tests; product number: Catalog #64BDCRBNPEH; CISBIO company) was used to determine the CRBN binding ability of the compounds to be tested through a HTRF method (homogeneous time-resolved fluorescence). The specific methods are as follows: • 1. […] Then, 2.5 μL of human Cereblon WT GST-tagged protein solution was added to each well. Finally, 5 μL of the thoroughly mixed Thalidomide-Red reagent and GST Eu antibody working solution were added to each of the aforementioned wells. […] The blank control wells were sequentially added with 2.5 μL of diluent #9 (1X) solution, 2.5 μL of PROTAC binding buffer, and 5 μL of thoroughly mixed Thalidomide-Red reagent and GST Eu antibody working solution. • 4.
The corresponding CRBN binding inhibition rate was calculated using the following method: […]
OD 620 nmcompound is the absorbance value of each well of the compounds to be tested of the present disclosure at an emission wavelength of 620 nm. […] OD 620 nmcontrol is the absorbance value of the blank control well at an emission wavelength of 620 nm. […] OD 620 nmStd0 is the absorbance value of the solvent control well at an emission wavelength of 620 nm.

human Cereblon WT GST-tagged protein, sequence (Q96SW2 whole entry): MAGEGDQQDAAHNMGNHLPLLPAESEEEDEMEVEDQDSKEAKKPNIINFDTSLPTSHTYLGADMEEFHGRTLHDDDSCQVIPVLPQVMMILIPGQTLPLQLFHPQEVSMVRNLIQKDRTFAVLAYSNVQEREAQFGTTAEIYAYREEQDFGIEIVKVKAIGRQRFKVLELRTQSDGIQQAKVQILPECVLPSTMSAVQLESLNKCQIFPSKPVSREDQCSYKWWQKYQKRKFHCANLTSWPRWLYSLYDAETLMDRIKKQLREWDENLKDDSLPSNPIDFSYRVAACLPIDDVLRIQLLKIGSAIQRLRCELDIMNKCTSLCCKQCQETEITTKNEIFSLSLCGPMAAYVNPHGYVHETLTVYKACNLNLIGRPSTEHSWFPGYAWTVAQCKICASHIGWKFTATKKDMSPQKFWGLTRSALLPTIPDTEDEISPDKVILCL

| IC50 [µM] | Compound |
| --- | --- |
| < 0.5 | O=C1CCC(N2Cc3cc(CN4CC5(CCN(C(c6ccccc6)c6ccccc6)CC5)C4)ccc3C2=O)C(=O)N1 (centres unmarked) [GT-05901, 3-(5-((7-benzhydryl-2,7-diazaspiro[3.5]nonan-2-yl)methyl)-1-oxoisoindolin-2-yl)piperidine-2,6-dione] |
| 0.5 to 1 | O=C1CCC(N2Cc3c(ccc(CN4CC5(CCN(C(c6ccccc6)c6ccccc6)CC5)C4)c3F)C2=O)C(=O)N1 (centres unmarked) [GT-05902, 3-(5-((7-benzhydryl-2,7-diazaspiro[3.5]nonan-2-yl)methyl)-4-fluoro-1-oxoisoindolin-2-yl)piperidine-2,6-dione] |
| 0.5 to 1 | O=C1CCC(N2Cc3cc(CN4CC5(CCN(C(c6ccccc6)c6ccccc6)CC5)C4)c(F)cc3C2=O)C(=O)N1 (centres unmarked) [GT-05903, 3-(5-((7-benzhydryl-2,7-diazaspiro[3.5]nonan-2-yl)methyl)-6-fluoro-1-oxoisoindolin-2-yl)piperidine-2,6-dione] |
| 0.5 to 1 | O=C1CCC(N2Cc3cc(CN4CC5(CCN(C(c6ccccc6)c6ccccc6)CC5)C4)cc(F)c3C2=O)C(=O)N1 (centres unmarked) [GT-05904, 3-(5-((7-benzhydryl-2,7-diazaspiro[3.5]nonan-2-yl)methyl)-7-fluoro-1-oxoisoindolin-2-yl)piperidine-2,6-dione] |
| 0.5 to 1 | CC1CN(C(c2ccccc2)c2ccccc2)CC(C)N1C(=O)c1cc(F)c2c(c1)CN(C1CCC(=O)NC1=O)C2=O (centres unmarked) [GT-05921, 3-(5-(4-benzhydryl-2,6-dimethylpiperazine-1-carbonyl)-7-fluoro-1-oxoisoindolin-2-yl)piperidine-2,6-dione] |
| 0.5 to 1 | O=C1CCC(N2C(=O)c3cc(F)c(N4CC5CCC4CN5C(c4ccccc4)c4ccccc4)cc3C2=O)C(=O)N1 (centres unmarked) [GT-05936, 5-(5-benzhydryl-2,5-diazabicyclo[2.2.2]octan-2-yl)-2-(2,6-dioxopiperidin-3-yl)-6-fluoroisoindoline-1,3-dione] |
| 0.5 to 1 | O=C1CCC(N2Cc3cc(CN4C[C@H]5C[C@@H]4CN5C(c4ccccc4)c4ccccc4)c(F)cc3C2=O)C(=O)N1 (stereo partly drawn) [GT-05958, 3-(5-(((1R,4R)-5-benzhydryl-2,5-diazabicyclo[2.2.1]heptan-2-yl)methyl)-6-fluoro-1-oxoisoindolin-2-yl)piperidine-2,6-dione] |
| 0.5 to 1 | O=C1CCC(N2Cc3cc(CN4CC5CCC4CN5C(c4ccccc4)c4ccccc4)cc(F)c3C2=O)C(=O)N1 (centres unmarked) [GT-05964, 3-(5-((5-benzhydryl-2,5-diazabicyclo[2.2.2]octan-2-yl)methyl)-7-fluoro-1-oxoisoindolin-2-yl)piperidine-2,6-dione] |
| 1 to 1.9 | O=C1CCC(N2Cc3cc(CN4CCC5(CCN(C(c6ccccc6)c6ccccc6)CC5)C4)ccc3C2=O)C(=O)N1 (centres unmarked) [GT-05969, 3-(5-((8-benzhydryl-2,8-diazaspiro[4.5]decan-2-yl)methyl)-1-oxoisoindolin-2-yl)piperidine-2,6-dione] |
| 1 to 1.9 | O=C1CCC(N2Cc3cc(CN4CCC5(CCN(C(c6ccccc6)c6ccccc6)CC5)C4)cc(F)c3C2=O)C(=O)N1 (centres unmarked) [GT-05972, 3-(5-((8-benzhydryl-2,8-diazaspiro[4.5]decan-2-yl)methyl)-7-fluoro-1-oxoisoindolin-2-yl)piperidine-2,6-dione] |
| 0.5 to 1 | O=C1CCC(N2Cc3cc(C(=O)N4C[C@@H]5C[C@H]4CN5C(c4ccccc4)c4ccccc4)ccc3C2=O)C(=O)N1 (stereo partly drawn) [GT-05977, 3-(5-((1S,4S)-5-benzhydryl-2,5-diazabicyclo[2.2.1]heptane-2-carbonyl)-1-oxoisoindolin-2-yl)piperidine-2,6-dione] |
| 1 to 1.9 | O=C1CCC(N2Cc3cc(C(=O)N4C[C@@H]5C[C@H]4CN5C(c4ccccc4)c4ccccc4)cc(F)c3C2=O)C(=O)N1 (stereo partly drawn) [GT-05978, 3-(5-((1S,4S)-5-benzhydryl-2,5-diazabicyclo[2.2.1]heptane-2-carbonyl)-7-fluoro-1-oxoisoindolin-2-yl)piperidine-2,6-dione] |
| 0.5 to 1 | O=C1CCC(N2Cc3c(C(=O)N4CCN(C(c5ccc(Cl)cc5)c5ccc(Cl)cc5)CC4)cccc3C2=O)C(=O)N1 (centres unmarked) [GT-05985, 3-(4-(4-(bis(4-chlorophenyl)methyl)piperazine-1-carbonyl)-1-oxoisoindolin-2-yl)piperidine-2,6-dione] |
| < 0.5 | O=C1CCC(N2Cc3cc(C(=O)N4C[C@H]5C[C@@H]4CN5C(c4ccccc4)c4ccccc4)ccc3C2=O)C(=O)N1 (stereo partly drawn) [GT-05990, 3-(5-((1R,4R)-5-benzhydryl-2,5-diazabicyclo[2.2.1]heptane-2-carbonyl)-1-oxoisoindolin-2-yl)piperidine-2,6-dione] |
| < 0.5 | O=C1CCC(N2Cc3cc(C(=O)N4C[C@H]5C[C@@H]4CN5C(c4ccccc4)c4ccccc4)cc(F)c3C2=O)C(=O)N1 (stereo partly drawn) [GT-05991, 3-(5-((1R,4R)-5-benzhydryl-2,5-diazabicyclo[2.2.1]heptane-2-carbonyl)-7-fluoro-1-oxoisoindolin-2-yl)piperidine-2,6-dione] |
| 0.5 to 1 | O=C1CCC(N2Cc3cc(CN4CCC5(CC4)CCN(C(c4ccccc4)c4ccccc4)CC5)ccc3C2=O)C(=O)N1 (centres unmarked) [GT-06002, 3-(5-((9-benzhydryl-3,9-diazaspiro[5.5]undecan-3-yl)methyl)-1-oxoisoindolin-2-yl)piperidine-2,6-dione] |
| 0.5 to 1 | O=C1CCC(N2Cc3c(ccc(CN4CCC5(CC4)CCN(C(c4ccccc4)c4ccccc4)CC5)c3F)C2=O)C(=O)N1 (centres unmarked) [GT-06024, 3-(5-((9-benzhydryl-3,9-diazaspiro[5.5]undecan-3-yl)methyl)-4-fluoro-1-oxoisoindolin-2-yl)piperidine-2,6-dione] |
| 0.5 to 1 | O=C1CCC(N2Cc3cc(CN4CCC5(CC4)CCN(C(c4ccccc4)c4ccccc4)CC5)c(F)cc3C2=O)C(=O)N1 (centres unmarked) [GT-06025, 3-(5-((9-benzhydryl-3,9-diazaspiro[5.5]undecan-3-yl)methyl)-6-fluoro-1-oxoisoindolin-2-yl)piperidine-2,6-dione] |
| 0.5 to 1 | O=C1CCC(N2Cc3cc(CN4CCC5(CC4)CCN(C(c4ccccc4)c4ccccc4)CC5)cc(F)c3C2=O)C(=O)N1 (centres unmarked) [GT-06026, 3-(5-((9-benzhydryl-3,9-diazaspiro[5.5]undecan-3-yl)methyl)-7-fluoro-1-oxoisoindolin-2-yl)piperidine-2,6-dione] |
| < 0.5 | O=C1CCC(N2Cc3cc(C(=O)N4CC5CCC4CN5C(c4ccccc4)c4ccccc4)ccc3C2=O)C(=O)N1 (centres unmarked) [GT-06056, 3-(5-(5-benzhydryl-2,5-diazabicyclo[2.2.2]octane-2-carbonyl)-1-oxoisoindolin-2-yl)piperidine-2,6-dione] |
| < 0.5 | O=C1CCC(N2Cc3cc(C(=O)N4CC5CCC4CN5C(c4ccccc4)c4ccccc4)cc(F)c3C2=O)C(=O)N1 (centres unmarked) [GT-06057, 3-(5-(5-benzhydryl-2,5-diazabicyclo[2.2.2]octane-2-carbonyl)-7-fluoro-1-oxoisoindolin-2-yl)piperidine-2,6-dione] |
| < 0.5 | CC1CN(C(=O)c2ccc3c(c2)CN(C2CCC(=O)NC2=O)C3=O)CC(C)N1C(c1ccccc1)c1ccccc1 (centres unmarked) [GT-06059, 3-(5-(4-benzhydryl-3,5-dimethylpiperazine-1-carbonyl)-1-oxoisoindolin-2-yl)piperidine-2,6-dione] |
| 0.5 to 1 | CC1CN(C(=O)c2cc(F)c3c(c2)CN(C2CCC(=O)NC2=O)C3=O)CC(C)N1C(c1ccccc1)c1ccccc1 (centres unmarked) [GT-06060, 3-(5-(4-benzhydryl-3,5-dimethylpiperazine-1-carbonyl)-7-fluoro-1-oxoisoindolin-2-yl)piperidine-2,6-dione] |
| 0.5 to 1 | CC1(C)CN(C(=O)c2cc(F)c3c(c2)CN(C2CCC(=O)NC2=O)C3=O)CCN1C(c1ccccc1)c1ccccc1 (centres unmarked) [GT-06062, 3-(5-(4-benzhydryl-3,3-dimethylpiperazine-1-carbonyl)-7-fluoro-1-oxoisoindolin-2-yl)piperidine-2,6-dione] |

| Compound | IC50 [µM] |
| --- | --- |
| O=C1CCC(N2Cc3cc(C(=O)N4C5CC4CN(C(c4ccccc4)c4ccccc4)C5)cc(F)c3C2=O)C(=O)N1 (centres unmarked) [GT-05916, 3-(5-(3-benzhydryl-3,6-diazabicyclo[3.1.1]heptane-6-carbonyl)-7-fluoro-1-oxoisoindolin-2-yl)piperidine-2,6-dione] | < 0.5 |
| O=C1CCC(N2C(=O)c3ccc(C(=O)N4C5CC4CN(C(c4ccccc4)c4ccccc4)C5)cc3C2=O)C(=O)N1 (centres unmarked) [GT-05918, 5-(3-benzhydryl-3,6-diazabicyclo[3.1.1]heptane-6-carbonyl)-2-(2,6-dioxopiperidin-3-yl) isoindoline-1,3-dione] | 1 to 1.9 |
| O=C1CCC(N2Cc3cc(C(=O)N4CC5CCC(C4)N5C(c4ccccc4)c4ccccc4)cc(F)c3C2=O)C(=O)N1 (centres unmarked) [GT-05981, 3-(5-(8-benzhydryl-3,8-diazabicyclo[3.2.1]octane-3-carbonyl)-7-fluoro-1-oxoisoindolin-2-yl)piperidine-2,6-dione] | 0.5 to 1 |
| O=C1CCC(N2Cc3cc(C(=O)N4C5CCC4CN(C(c4ccccc4)c4ccccc4)C5)ccc3C2=O)C(=O)N1 (centres unmarked) [GT-05983, 3-(5-(3-benzhydryl-3,8-diazabicyclo[3.2.1]octane-8-carbonyl)-1-oxoisoindolin-2-yl)piperidine-2,6-dione] | 0.5 to 1 |
| O=C1CCC(N2Cc3cc(C(=O)N4C5CCC4CN(C(c4ccccc4)c4ccccc4)C5)cc(F)c3C2=O)C(=O)N1 (centres unmarked) [GT-06055, 3-(5-(3-benzhydryl-3,8-diazabicyclo[3.2.1]octane-8-carbonyl)-7-fluoro-1-oxoisoindolin-2-yl)piperidine-2,6-dione] | < 0.5 |
